Assay results reported in ChEMBL document CHEMBL1201861, “Genomics of Drug Sensitity in Cancer screening data, Wellcome Trust Sanger Institute”.

Experiments:
Assay in all cases: cells
HCC2157 = format: functional, cell-based, Homo sapiens; details: Homo sapiens, HCC2157;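 also: growth inhibition of the cancer cell line, read out as cell viability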
Description: SANGER: Inhibition of human HCC2157 cell growth in a cell viability assay.

A3-KAW = format: functional, cell-based, Homo sapiens; details: Homo sapiens, A3-KAW;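 also: growth inhibition of human A3-KAW cells, read out with a cell viability assay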
Description: SANGER: Inhibition of human A3-KAW cell growth in a cell viability assay.

TE-9 = format: functional, cell-based, Homo sapiens; details: Homo sapiens, TE-9;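 also: cell growth inhibition, measured with a cell viability readout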
Description: SANGER: Inhibition of human TE-9 cell growth in a cell viability assay.

UACC-257 = format: functional, cell-based, Homo sapiens; details: Homo sapiens, UACC-257
Description: SANGER: Inhibition of human UACC-257 cell growth in a cell viability assay.

SJSA-1 = format: functional, cell-based, Homo sapiens; details: Homo sapiens, SJSA-1;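 also: growth inhibition of human SJSA-1 cells, read out through a cell viability measurement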
Description: SANGER: Inhibition of human SJSA-1 cell growth in a cell viability assay.

SW 962 = format: functional, cell-based, Homo sapiens; details: Homo sapiens, SW 962;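 also: growth inhibition of human SW962 cells, read out by a cell viability assay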
Description: SANGER: Inhibition of human SW962 cell growth in a cell viability assay.

MFM-223 = format: functional, cell-based, Homo sapiens; details: Homo sapiens, MFM-223
Description: SANGER: Inhibition of human MFM-223 cell growth in a cell viability assay.

BB49-HNC = format: functional, cell-based, Homo sapiens; details: Homo sapiens, BB49-HNC;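 also: cell viability assay read-out, reported as inhibition of BB49-HNC cell growth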
Description: SANGER: Inhibition of human BB49-HNC cell growth in a cell viability assay.

J-RT3-T3-5 = format: functional, cell-based, Homo sapiens; details: Homo sapiens, J-RT3-T3-5;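 also: cell viability assay measuring growth inhibition of human J-RT3-T3-5 cells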
Description: SANGER: Inhibition of human J-RT3-T3-5 cell growth in a cell viability assay.

SH-4 = format: functional, cell-based, Homo sapiens; details: Homo sapiens, SH-4;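 also: growth inhibition of SH-4 cells, read out with a cell viability assay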
Description: SANGER: Inhibition of human SH-4 cell growth in a cell viability assay.

NCI-H1838 = format: functional, cell-based, Homo sapiens; details: Homo sapiens, NCI-H1838;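 also: growth inhibition of NCI-H1838 cells, determined with a cell viability readout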
Description: SANGER: Inhibition of human NCI-H1838 cell growth in a cell viability assay.

COLO-824 = format: functional, cell-based, Homo sapiens; details: Homo sapiens, COLO-824
Description: SANGER: Inhibition of human COLO-824 cell growth in a cell viability assay.

SHP77 = format: functional, cell-based, Homo sapiens, SHP-77; details: Homo sapiens, SHP77;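 also: growth inhibition of human SHP-77 cells measured by a cell viability assay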
Description: SANGER: Inhibition of human SHP-77 cell growth in a cell viability assay.

COR-L88 = format: functional, cell-based, Homo sapiens; details: Homo sapiens, COR-L88;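 also: growth inhibition of COR-L88 cells, read out with a cell viability assay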
Description: SANGER: Inhibition of human COR-L88 cell growth in a cell viability assay.

ONS-76 = format: functional, cell-based, Homo sapiens; details: Homo sapiens, ONS-76;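 also: growth inhibition of human ONS-76 cells, read out with a cell viability assay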
Description: SANGER: Inhibition of human ONS-76 cell growth in a cell viability assay.

SK-MEL-2 = format: functional, cell-based, Homo sapiens; details: Homo sapiens, SK-MEL-2;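 also: growth inhibition of human SK-MEL-2 cells measured with a cell viability assay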
Description: SANGER: Inhibition of human SK-MEL-2 cell growth in a cell viability assay.

MZ2-MEL = format: functional, cell-based, Homo sapiens; details: Homo sapiens, MZ2-MEL;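 also: growth inhibition of MZ2-MEL cells read out with a cell viability assay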
Description: SANGER: Inhibition of human MZ2-MEL cell growth in a cell viability assay.

LB831-BLC = format: functional, cell-based, Homo sapiens; details: Homo sapiens, LB831-BLC;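 also: growth inhibition of LB831-BLC cells, read out with a cell viability assay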
Description: SANGER: Inhibition of human LB831-BLC cell growth in a cell viability assay.

DJM-1 = format: functional, cell-based, Homo sapiens; details: Homo sapiens, DJM-1;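 also: growth inhibition of human DJM-1 cells, read out by a cell viability assay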
Description: SANGER: Inhibition of human DJM-1 cell growth in a cell viability assay.

LOX IMVI = format: functional, cell-based, Homo sapiens; details: Homo sapiens, LOX IMVI
Description: SANGER: Inhibition of human LOXIMVI cell growth in a cell viability assay.

HCC1187 = format: functional, cell-based, Homo sapiens; details: Homo sapiens, HCC1187;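 also: growth inhibition of HCC1187 cells, read out with a cell viability assay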
Description: SANGER: Inhibition of human HCC1187 cell growth in a cell viability assay.

ACN = format: functional, cell-based, Homo sapiens; details: Homo sapiens, ACN;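 also: growth inhibition of the human ACN cell line, read out via cell viability testing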
Description: SANGER: Inhibition of human ACN cell growth in a cell viability assay.

HCC 2998 = format: functional, cell-based, Homo sapiens; details: Homo sapiens, HCC 2998;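 also: growth inhibition of human HCC2998 cells, measured with a cell viability read-out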
Description: SANGER: Inhibition of human HCC2998 cell growth in a cell viability assay.

NCI-H1770 = format: functional, cell-based, Homo sapiens; details: Homo sapiens, NCI-H1770;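 also: growth inhibition of NCI-H1770 cells determined with a viability readout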
Description: SANGER: Inhibition of human NCI-H1770 cell growth in a cell viability assay.

NCI-N87 = format: functional, cell-based, Homo sapiens; details: Homo sapiens, NCI-N87;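 also: growth inhibition of human NCI-N87 cells, read out with a cell viability assay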
Description: SANGER: Inhibition of human NCI-N87 cell growth in a cell viability assay.

SK-UT-1 = format: functional, cell-based, Homo sapiens; details: Homo sapiens, SK-UT-1;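 also: growth inhibition of SK-UT-1 cells, measured by a cell viability assay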
Description: SANGER: Inhibition of human SK-UT-1 cell growth in a cell viability assay.

SBC-1 = format: functional, cell-based, Homo sapiens; details: Homo sapiens, SBC-1;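 also: cell viability assay measuring growth inhibition of the SBC-1 cell line, IC50 being the concentration that halves growth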
Description: SANGER: Inhibition of human SBC-1 cell growth in a cell viability assay.

LS-411N = format: functional, cell-based, Homo sapiens; details: Homo sapiens, LS-411N
SCH = format: functional, cell-based, Homo sapiens; details: Homo sapiens, SCH;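 also: growth inhibition of human SCH cells, read out in a cell viability assay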
Description: SANGER: Inhibition of human SCH cell growth in a cell viability assay.

A4-Fuk = format: functional, cell-based, Homo sapiens; details: Homo sapiens, A4-Fuk;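 also: growth inhibition of A4-Fuk cells, read out by a cell viability assay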
Description: SANGER: Inhibition of human A4-Fuk cell growth in a cell viability assay.

GR-ST = format: functional, cell-based, Homo sapiens; details: Homo sapiens, GR-ST
Description: SANGER: Inhibition of human GR-ST cell growth in a cell viability assay.

Mo = format: functional, cell-based, Homo sapiens; details: Homo sapiens, Mo
Description: SANGER: Inhibition of human Mo-T cell growth in a cell viability assay.

KLE = format: functional, cell-based, Homo sapiens; details: Homo sapiens, KLE;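 also: growth inhibition of human KLE cells, read out with a cell viability assay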
Description: SANGER: Inhibition of human KLE cell growth in a cell viability assay.

ES4 = format: functional, cell-based, Homo sapiens; details: Homo sapiens, ES4;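 also: growth inhibition of human ES4 cells, read out by a cell viability assay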
Description: SANGER: Inhibition of human ES4 cell growth in a cell viability assay.

RPMI-8226 = format: functional, cell-based, Homo sapiens; details: Homo sapiens, RPMI-8226
Description: SANGER: Inhibition of human RPMI-8226 cell growth in a cell viability assay.

SNU1 = format: functional, cell-based, Homo sapiens; details: Homo sapiens, SNU1;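 also: growth inhibition of human NCI-SNU-1 cells, measured with a cell viability assay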
Description: SANGER: Inhibition of human NCI-SNU-1 cell growth in a cell viability assay.

KM-H2 = format: functional, cell-based, Homo sapiens; details: Homo sapiens, KM-H2;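 also: growth inhibition of KM-H2 cells, read out by a cell viability assay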
Description: SANGER: Inhibition of human KM-H2 cell growth in a cell viability assay.

L-428 = format: functional, cell-based, Homo sapiens; details: Homo sapiens, L-428
Description: SANGER: Inhibition of human L-428 cell growth in a cell viability assay.

HT = format: functional, cell-based, Homo sapiens; details: Homo sapiens, HT
Description: SANGER: Inhibition of human HT cell growth in a cell viability assay.

DMS-114 = format: functional, cell-based, Homo sapiens; details: Homo sapiens, DMS-114
A101D = format: functional, cell-based, Homo sapiens; details: Homo sapiens, A101D;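 also: growth inhibition of the cell line, measured with a viability assay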
Description: SANGER: Inhibition of human A101D cell growth in a cell viability assay.

HAL-01 = format: functional, cell-based, Homo sapiens; details: Homo sapiens, HAL-01;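 also: growth inhibition of human HAL-01 cells, read out with a cell viability assay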
Description: SANGER: Inhibition of human HAL-01 cell growth in a cell viability assay.

NB12 = format: functional, cell-based, Homo sapiens; details: Homo sapiens, NB12;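 also: growth inhibition of human NB12 cells, read out by a cell viability assay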
Description: SANGER: Inhibition of human NB12 cell growth in a cell viability assay.

MFH-ino = format: functional, cell-based, Homo sapiens; details: Homo sapiens, MFH-ino;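 also: growth inhibition of human MFH-ino cells, read out by a cell viability assay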
Description: SANGER: Inhibition of human MFH-ino cell growth in a cell viability assay.

HCC2218 = format: functional, cell-based, Homo sapiens; details: Homo sapiens, HCC2218;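 also: cell viability assay read-out, with IC50 given as the concentration that inhibits growth of the cell line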
Description: SANGER: Inhibition of human HCC2218 cell growth in a cell viability assay.

AM-38 = format: functional, cell-based, Homo sapiens; details: Homo sapiens, AM-38;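 also: growth inhibition of AM-38 cells of human origin, read out by a cell viability assay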
Description: SANGER: Inhibition of human AM-38 cell growth in a cell viability assay.

NCI-H2126 = format: functional, cell-based, Homo sapiens; details: Homo sapiens, NCI-H2126;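 also: growth inhibition of the cancer cell line, determined with a cell viability readout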
Description: SANGER: Inhibition of human NCI-H2126 cell growth in a cell viability assay.

HC-1 = format: functional, cell-based, Homo sapiens; details: Homo sapiens, HC-1;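 also: growth inhibition of HC-1 cells measured by a cell viability assay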
Description: SANGER: Inhibition of human HC-1 cell growth in a cell viability assay.

NCI-H1299 = format: functional, cell-based, Homo sapiens; details: Homo sapiens, NCI-H1299;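 also: growth inhibition of human NCI-H1299 cells, read out by a cell viability assay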
Description: SANGER: Inhibition of human NCI-H1299 cell growth in a cell viability assay.

Structure (SMILES): CCC/C=C/C=C/C(=O)O[C@H]1/C(=C/C(=O)OC)C[C@H]2C[C@H]([C@@H](C)O)OC(=O)C[C@H](O)C[C@@H]3C[C@H](OC(C)=O)C(C)(C)[C@](O)(C[C@@H]4C/C(=C/C(=O)OC)C[C@H](/C=C/C(C)(C)[C@]1(O)O2)O4)O3 [BRYOSTATIN 1]
- IC50 (HCC2157): > 8 nM
- IC50 (A3-KAW): > 8 nM
- IC50 (TE-9): > 8 nM
- IC50 (UACC-257): > 8 nM
- IC50 (SJSA-1): > 8 nM
- IC50 (SW 962): > 8 nM
- IC50 (MFM-223): > 8 nM
- IC50 (BB49-HNC): > 8 nM
- IC50 (J-RT3-T3-5): > 8 nM
- IC50 (SH-4): > 8 nM
- IC50 (NCI-H1838): > 8 nM
- IC50 (COLO-824): > 8 nM
- IC50 (SHP77): > 8 nM
- IC50 (COR-L88): > 8 nM
- IC50 (ONS-76): > 8 nM
- IC50 (SK-MEL-2): > 8 nM
- IC50 (MZ2-MEL): > 8 nM
- IC50 (LB831-BLC): > 8 nM
- IC50 (DJM-1): > 8 nM
- IC50 (LOX IMVI): > 8 nM
- IC50 (HCC1187): > 8 nM
- IC50 (ACN): > 8 nM
- IC50 (HCC 2998): > 8 nM
- IC50 (NCI-H1770): > 8 nM
- IC50 (NCI-N87): > 8 nM
- IC50 (SK-UT-1): > 8 nM
- IC50 (SBC-1): > 8 nM
- IC50 (LS-411N): > 8 nM
- IC50 (SCH): > 8 nM
- IC50 (A4-Fuk): > 8 nM
- IC50 (GR-ST): > 8 nM
- IC50 (Mo): > 8 nM
- IC50 (KLE): > 8 nM
- IC50 (ES4): > 8 nM
- IC50 (RPMI-8226): > 8 nM
- IC50 (SNU1): > 8 nM
- IC50 (KM-H2): > 8 nM
- IC50 (L-428): > 8 nM
- IC50 (HT): > 8 nM
- IC50 (DMS-114): > 8 nM
- IC50 (A101D): > 8 nM
- IC50 (HAL-01): > 8 nM
- IC50 (NB12): > 8 nM
- IC50 (MFH-ino): > 8 nM
- IC50 (HCC2218): > 8 nM
- IC50 (AM-38): > 8 nM
- IC50 (NCI-H2126): > 8 nM
- IC50 (HC-1): > 8 nM
- IC50 (NCI-H1299): > 8 nM

Structure (SMILES): COc1cccc2c1C(=O)c1c(O)c3c(c(O)c1C2=O)C[C@@](O)(C(=O)CO)C[C@@H]3O[C@H]1C[C@H](N)[C@H](O)[C@H](C)O1 [DOXORUBICIN]
- IC50 (HCC2157): 64 nM
- IC50 (A3-KAW): 40.1 nM
- IC50 (TE-9): 257 nM
- IC50 (UACC-257): 362 nM
- IC50 (SJSA-1): 111 nM
- IC50 (SW 962): 69.9 nM
- IC50 (MFM-223): > 1020 nM
- IC50 (BB49-HNC): > 1020 nM
- IC50 (J-RT3-T3-5): 96.3 nM
- IC50 (SH-4): 92.1 nM
- IC50 (NCI-H1838): 405 nM
- IC50 (COLO-824): > 1020 nM
- IC50 (SHP77): > 1020 nM
- IC50 (COR-L88): > 1020 nM
- IC50 (ONS-76): 18.9 nM
- IC50 (SK-MEL-2): 230 nM
- IC50 (MZ2-MEL): 33.9 nM
- IC50 (LB831-BLC): 206 nM
- IC50 (DJM-1): 102 nM
- IC50 (LOX IMVI): 389 nM
- IC50 (HCC1187): 591 nM
- IC50 (ACN): 31.1 nM
- IC50 (HCC 2998): 17.4 nM
- IC50 (NCI-H1770): 133 nM
- IC50 (NCI-N87): 480 nM
- IC50 (SK-UT-1): 20 nM
- IC50 (SBC-1): 156 nM
- IC50 (LS-411N): 99.1 nM
- IC50 (SCH): > 1020 nM
- IC50 (A4-Fuk): 162 nM
- IC50 (GR-ST): 255 nM
- IC50 (Mo): 805 nM
- IC50 (KLE): 175 nM
- IC50 (ES4): 6.11 nM
- IC50 (RPMI-8226): 213 nM
- IC50 (SNU1): 65.9 nM
- IC50 (KM-H2): 90.7 nM
- IC50 (L-428): 791 nM
- IC50 (HT): 405 nM
- IC50 (DMS-114): 396 nM
- IC50 (A101D): 51.5 nM
- IC50 (HAL-01): 313 nM
- IC50 (NB12): 277 nM
- IC50 (MFH-ino): 3.99 nM
- IC50 (HCC2218): 182 nM
- IC50 (AM-38): 282 nM
- IC50 (NCI-H2126): 192 nM
- IC50 (HC-1): 37.3 nM
- IC50 (NCI-H1299): 37.6 nM
